Experimental data: patent publication US9023789B2, “Amylin analogs and pharmaceutical compositions thereof” (Novo Nordisk A/S, priority 2012, dated 2015)
Entries after “also recorded” stand apart in the source; their conditions may differ. Read-outs that look alike come from different tables or passages of the source. Bridge positions count the residues as written; N and C are the ends. Ends that are not written are not given here.

What was measured:
[1] = system: Male Wistar rats; test: ASSAY (XII) effect from single subcutaneous administration on plasma calcium in rats; assay type: in vivo, rat; conditions: for Plasma calcium red (%) 0-12 h (maximal): single s.c., compared to vehicle
Protocol: Assay (XII)—Effect from Single Subcutaneous Administration of Analogue on Plasma Calcium in Rats
Male Wistar rats (Taconic Europe, ˜250 g at test date) were acclimatized to handling prior to the study. Rats were divided in groups of five and subcutaneously dosed with test compound at time=0. At time T=−15 min; 1 h, 2 h, 4 h, 7 h, 12 h, and 24 h a blood sample was obtained and heparin stabilized plasma was analysed for total calcium (Cobas, Hitachi). Data are illustrated in graphs as mean±SEM.

[2] = system: Male Sprague-Dawley rats; test: ASSAY (XI) single subcutaneous administration, food intake monitored for 48 hours in rats; assay type: in vivo, rat; conditions: for Food intake red (%) 0-24 h / Food intake red (%) 24-48 h: single s.c., compared to vehicle
From the text: Assay (XI)—Effect from Single Subcutaneous Administration of Analogue on Plasma Calcium in Rats
Male Sprague-Dawley rats (Taconic Europe, ˜250 g at test date) were acclimatized to reversed day light cycle (lights on from 10 PM to 10 AM) and single housing in online food intake monitoring system (Ellegaard MBRose, Denmark) prior to study start. […] Data are illustrated in graphs as mean±SEM.

[3] = system: amylin receptor / calcitonin receptor; conditions: background statement, cited from earlier work
[4] = system: Sprague Dawley (SD) rats; test: ASSAY (I) efficacy testing on appetite (food intake) using an ad libitum fed rat model; assay type: in vivo; conditions: rats, single subcutaneous 1000 nmol/kg injection
From the text: Sprague Dawley (SD) rats from Taconic Europe, Denmark are used for the experiments. The rats have a body weight 200-250 g at the start of experiment. The rats arrive at least 10-14 days before start of experiment to allow acclimatization to experimental settings. During this period the animals are handled at least 2 times. After arrival rats are housed individually for one week in a reversed light/dark phase (meaning that lights are off during daytime and on during nighttime) for two weeks. Since rats are normally active and eat their major part of their daily food intake during the dark period, rats are dosed in the morning right before lights are turned off. This set-up results in the lowest data variation and highst test sensitivity. The experiment is conducted in the rats' home cages and rats have free access to food and water throughout the acclimatization period and the experiment period. Each dose of derivative is tested in a group of 5-8 rats. A vehicle group of 6-8 rats is included in each set of testing. Rats are dosed once according to body weight with a 0.01-3 mg/kg solution administered intraperitoneally (ip), orally (po) or subcutaneously (sc). The time of dosing is recorded for each group. After dosing, the rats are returned to their home cages, where they then have access to food and water. The food consumption is recorded individually continuously by online registration or manually every hour for 7 hours, and then after 24 h and sometimes 48 h. At the end of the experimental session, the animals are euthanized.
The individual data are recorded in Microsoft excel sheets. Outliers are excluded after applying the Grubbs statistical evaluation test for outliers, and the result is presented graphically using the GraphPad Prism program.

Compound	plasma calcium ([1]; dose 30 nmol/kg)	Plasma calcium red (%) 0-12 h (maximal) ([1]; 3 nmol/kg) [%]	Plasma calcium red (%) 0-12 h (maximal) ([1]; 30 nmol/kg) [%]	Food intake red (%) 0-24 h ([2]; 30 nmol/kg) [%]	Food intake red (%) 24-48 h ([2]; 30 nmol/kg) [%]	food intake monitored over 48 hours ([2]; single subcutaneous administration, 30 nmol/kg, versus vehicle)	Plasma calcium red (%) 0-12 h (maximal) ([1]; 1000 nmol/kg) [%]	Food intake red (%) 0-24 h ([2]; 1000 nmol/kg) [%]	Food intake red (%) 24-48 h ([2]; 1000 nmol/kg) [%]	potency on the amylin receptor relative to the calcitonin receptor [3]	potency on the amylin receptor relative to the calcitonin receptor ([3]; listed as pramlintide) [times]	reduction of food intake [4] [%]
CC(C)C[C@H](NC(=O)[C@H](CCCCN)NC(=O)CNC(=O)[C@H](CC(C)C)NC(=O)[C@@H](NC(=O)[C@@H]1CSSC[C@H](N)C(=O)N[C@@H](CO)C(=O)N[C@@H](CC(N)=O)C(=O)N[C@@H](CC(C)C)C(=O)N[C@@H](CO)C(=O)N[C@@H]([C@@H](C)O)C(=O)N1)C(C)C)C(=O)N[C@@H](CO)C(=O)N[C@@H](CCC(N)=O)C(=O)N[C@@H](CCC(=O)O)C(=O)N[C@@H](CC(C)C)C(=O)N[C@@H](Cc1c[nH]cn1)C(=O)N[C@@H](CCCCN)C(=O)N[C@@H](CC(C)C)C(=O)N[C@@H](CCC(N)=O)C(=O)N[C@H](C(=O)N[C@@H](Cc1ccc(O)cc1)C(=O)N1CCC[C@H]1C(=O)N[C@@H](CCCNC(=N)N)C(=O)N[C@H](C(=O)N[C@@H](CC(N)=O)C(=O)N[C@H](C(=O)NCC(=O)N[C@@H](CO)C(=O)NCC(=O)N[C@H](C(=O)N1CCC[C@H]1C(N)=O)[C@@H](C)O)[C@@H](C)O)[C@@H](C)O)[C@@H](C)O [salmon calcitonin, reference compound]	below 1.7 mM	35	39	87	19	reduction of food intake; also recorded: reduces food intake	–	–	–	–	–	–
Pramlintide (KCNTATCATQRLANFLVHSSNNFGPILPPTNVGSNTY-NH2; disulfide 2-7; UniProt P10997 34-70, looked up, variant A25P S28P S29P) [reference compound]	–	–	–	–	–	–	28	25	0	approximately 14 times	14	25
